Test results published in patent publication US9938261B2, “Heterocyclic compounds and methods of use thereof” (AMBIT BIOSCIENCES CORPORATION, priority 2011, dated 2018).

Tests used:
KIT = target: T1, KIT (Homo sapiens, UniProt P10721); test: Competition binding assay, KIT Kd; conditions: competition binding
T1 construct: made in house
Outline: (§1)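 Kd values came from eleven-point threefold dilutions of compound, measured by qPCR of kinase eluted from affinity-ligand beads after 1 h equilibrium binding at room temperature. Kinase was either T7-phage fused or HEK-293-expressed with a DNA tag.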

CSF1R [1] = target: T2, CSF1R (Homo sapiens, UniProt P07333); test: HEK293 CSF1R phosphorylation MSD assay; format: cell-based; design: expressed in transfected cells; host or cells: HEK293; conditions: HEK293 cells, M-CSF stimulated CSF1R phosphorylation, MSD; read-out: HEK293 pCSF1R M-CSF MSD:IC50
Outline: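 Ligand-induced CSF1R autophosphorylation was measured by MSD sandwich assay: CSF1R-FKBP from lysates captured via FK506, anti-phosphotyrosine readout. Cells were exposed to compound for 2 h (9-point, half-log, 0.5% DMSO) before 5 min 50 ng/mL M-CSF. Reported IC50 is the mean of duplicate-plate IC50s relative to DMSO control.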

[2] = target: kinase panel containing either 386 or 392 distinct kinases; test: Kinase selectivity score S10 from competition binding panel; conditions: 10 μM, panel of 386 or 392 distinct kinases
Outline: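 S10 is the number of kinases with percent-of-control under 10, divided by all distinct wild-type kinases tested, from a single 10 μM concentration. Binding measured by qPCR of kinase recovered from ligand-coated beads after 1 h equilibrium at room temperature; kinases were phage fusions or DNA-tagged HEK-293 products.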

CSF1R [3] = target: T2, CSF1R; test: Competition binding assay, CSF1R Kd; design: made in house; conditions: competition binding
Outline: as §1

PDGFRβ = target: T3, PDGFRβ (Homo sapiens, UniProt P09619); test: Competition binding assay, PDGFRβ Kd; conditions: competition binding
T3 construct: made in house
Outline: as §1

T1 sequence (P10721 26-976): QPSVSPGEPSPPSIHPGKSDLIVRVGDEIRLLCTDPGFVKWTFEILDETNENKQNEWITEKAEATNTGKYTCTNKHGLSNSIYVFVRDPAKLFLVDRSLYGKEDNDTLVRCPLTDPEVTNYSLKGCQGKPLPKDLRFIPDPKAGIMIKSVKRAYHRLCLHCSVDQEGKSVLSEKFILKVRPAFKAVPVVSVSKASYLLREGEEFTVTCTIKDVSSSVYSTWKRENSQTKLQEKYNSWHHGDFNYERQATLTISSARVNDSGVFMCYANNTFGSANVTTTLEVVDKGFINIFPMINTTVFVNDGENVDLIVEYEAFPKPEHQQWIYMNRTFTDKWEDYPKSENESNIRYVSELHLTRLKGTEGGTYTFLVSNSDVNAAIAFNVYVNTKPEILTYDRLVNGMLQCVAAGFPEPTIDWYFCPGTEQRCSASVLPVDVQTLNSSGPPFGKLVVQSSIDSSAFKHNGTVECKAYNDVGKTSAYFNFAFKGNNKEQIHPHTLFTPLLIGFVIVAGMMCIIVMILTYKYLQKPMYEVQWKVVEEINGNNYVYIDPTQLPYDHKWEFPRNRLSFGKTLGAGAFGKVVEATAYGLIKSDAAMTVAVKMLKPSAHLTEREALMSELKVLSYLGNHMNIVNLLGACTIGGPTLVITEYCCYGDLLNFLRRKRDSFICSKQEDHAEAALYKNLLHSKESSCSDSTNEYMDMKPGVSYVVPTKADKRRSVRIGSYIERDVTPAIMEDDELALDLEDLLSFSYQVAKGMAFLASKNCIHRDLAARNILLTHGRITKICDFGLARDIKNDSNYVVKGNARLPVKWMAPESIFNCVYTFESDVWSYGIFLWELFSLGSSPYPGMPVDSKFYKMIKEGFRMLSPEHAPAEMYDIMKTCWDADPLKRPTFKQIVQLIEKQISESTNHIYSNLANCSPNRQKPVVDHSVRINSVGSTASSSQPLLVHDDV
T2 sequence (P07333 20-972): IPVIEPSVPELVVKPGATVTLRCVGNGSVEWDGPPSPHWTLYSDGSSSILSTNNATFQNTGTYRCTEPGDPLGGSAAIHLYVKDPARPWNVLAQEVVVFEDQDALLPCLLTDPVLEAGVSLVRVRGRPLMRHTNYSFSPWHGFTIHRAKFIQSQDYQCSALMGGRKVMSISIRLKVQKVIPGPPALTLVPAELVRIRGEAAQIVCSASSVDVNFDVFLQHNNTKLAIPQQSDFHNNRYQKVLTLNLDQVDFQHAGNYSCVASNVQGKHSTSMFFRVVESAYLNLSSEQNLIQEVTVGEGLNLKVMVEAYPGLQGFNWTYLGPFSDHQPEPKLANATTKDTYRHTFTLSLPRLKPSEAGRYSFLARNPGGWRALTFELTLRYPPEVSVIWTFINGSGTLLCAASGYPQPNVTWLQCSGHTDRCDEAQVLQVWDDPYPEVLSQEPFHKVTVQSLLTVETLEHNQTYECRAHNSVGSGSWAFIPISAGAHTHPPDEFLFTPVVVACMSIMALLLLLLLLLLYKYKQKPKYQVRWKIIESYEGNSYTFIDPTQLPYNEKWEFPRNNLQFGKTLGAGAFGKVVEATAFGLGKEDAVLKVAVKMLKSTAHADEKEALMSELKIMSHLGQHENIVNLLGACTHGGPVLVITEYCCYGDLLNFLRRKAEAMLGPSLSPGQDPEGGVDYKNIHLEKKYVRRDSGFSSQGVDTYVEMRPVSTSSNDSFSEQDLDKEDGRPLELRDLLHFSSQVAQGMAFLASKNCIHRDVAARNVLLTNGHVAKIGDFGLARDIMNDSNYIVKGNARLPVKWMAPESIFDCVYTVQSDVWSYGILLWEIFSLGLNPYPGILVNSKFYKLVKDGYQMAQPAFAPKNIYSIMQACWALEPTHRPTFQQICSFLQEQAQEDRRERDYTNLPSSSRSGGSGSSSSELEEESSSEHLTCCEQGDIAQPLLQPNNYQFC
T3 sequence (P09619 33-1106): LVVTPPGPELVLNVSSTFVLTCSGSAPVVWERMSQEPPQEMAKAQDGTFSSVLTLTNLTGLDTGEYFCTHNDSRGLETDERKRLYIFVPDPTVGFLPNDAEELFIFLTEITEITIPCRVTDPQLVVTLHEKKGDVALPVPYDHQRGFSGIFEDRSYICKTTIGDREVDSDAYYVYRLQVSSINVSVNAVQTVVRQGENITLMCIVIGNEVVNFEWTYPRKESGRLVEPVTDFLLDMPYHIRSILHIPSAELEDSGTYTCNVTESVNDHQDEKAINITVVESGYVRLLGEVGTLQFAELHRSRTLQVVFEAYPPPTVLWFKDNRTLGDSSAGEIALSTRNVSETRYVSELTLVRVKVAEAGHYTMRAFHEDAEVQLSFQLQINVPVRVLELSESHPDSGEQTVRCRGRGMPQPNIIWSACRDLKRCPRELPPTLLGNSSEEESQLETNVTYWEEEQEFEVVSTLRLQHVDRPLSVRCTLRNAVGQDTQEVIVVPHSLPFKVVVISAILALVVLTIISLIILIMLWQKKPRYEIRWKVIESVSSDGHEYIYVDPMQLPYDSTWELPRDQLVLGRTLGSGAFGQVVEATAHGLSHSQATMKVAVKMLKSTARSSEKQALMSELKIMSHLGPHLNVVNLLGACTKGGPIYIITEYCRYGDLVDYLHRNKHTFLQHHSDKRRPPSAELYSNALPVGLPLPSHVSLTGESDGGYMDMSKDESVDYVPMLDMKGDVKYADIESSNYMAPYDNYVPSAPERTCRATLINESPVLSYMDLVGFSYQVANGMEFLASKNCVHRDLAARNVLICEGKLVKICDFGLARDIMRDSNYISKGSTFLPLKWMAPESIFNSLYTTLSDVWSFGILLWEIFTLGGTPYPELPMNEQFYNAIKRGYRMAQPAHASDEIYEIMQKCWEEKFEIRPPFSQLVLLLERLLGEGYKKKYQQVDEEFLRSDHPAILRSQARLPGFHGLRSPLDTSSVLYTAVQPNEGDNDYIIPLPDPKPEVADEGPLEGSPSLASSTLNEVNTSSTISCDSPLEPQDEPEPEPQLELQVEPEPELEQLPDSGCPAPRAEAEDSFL

Structure (SMILES) | Kd (KIT) | IC50 (CSF1R [1]) | Kinase specificity S(10) [2] | Kd (CSF1R [3]) | Kd (PDGFRβ)
CC(C)(O)C#Cc1cnc2c(c1)ncn2Cc1ccc2nc(N[C@@H]3CCCC[C@H]3O)sc2c1 [Example 104, (1R,2R)-2-((6-((6-(3-hydroxy-3-methylbut-1-yn-1-yl)-3H-imidazo[4,5-b]pyridin-3-yl)methyl)benzo[d]thiazol-2-yl)amino)cyclohexanol] | ≤ 100 nM | ≤ 50 nM | A (A≤0.01) | ≤ 5 nM | ≤ 50 nM
O[C@@H]1CCCC[C@H]1Nc1nc2ccc(Cn3cnc4cnc(C(F)(F)F)nc43)cc2s1 [Example 105, (1R,2R)-2-((6-((2-(trifluoromethyl)-9H-purin-9-yl)methyl)benzo[d]thiazol-2-yl)amino)cyclohexanol] | 500 to 2000 nM | 200 to 500 nM | A (A≤0.01) | 5 to 20 nM | 500 to 2000 nM
O[C@@H]1CCCC[C@H]1Nc1nc2ccc(Cc3cnc4ccc(Br)nn34)cc2s1 [Example 177, (1R,2R)-2-((6-((6-bromoimidazo[1,2-b]pyridazin-3-yl)methyl)benzo[d]thiazol-2-yl)amino)cyclohexanol] | ≤ 100 nM | ≤ 50 nM | C (C>0.02) | ≤ 5 nM | ≤ 50 nM
CN1CCN(c2ccc3ncc(Cc4ccc5nc(N[C@@H]6CCCC[C@H]6O)sc5c4)n3n2)CC1 [Example 178, (1R,2R)-2-((6-((6-(4-methylpiperazin-1-yl)imidazo[1,2-b]pyridazin-3-yl)methyl)benzo[d]thiazol-2-yl)amino)cyclohexanol] | 500 to 2000 nM | 200 to 500 nM | B (0.01<B≤0.02) | 5 to 20 nM | 500 to 2000 nM
OC[C@H]1CC[C@H](Nc2nc3ccc(Cn4cnc5cc(F)cnc54)cc3s2)CC1 [Example 179, (trans-4-((6-((6-fluoro-3H-imidazo[4,5-b]pyridin-3-yl)methyl)benzo[d]thiazol-2-yl)amino)cyclohexyl)methanol] | ≤ 100 nM | 200 to 500 nM | B (0.01<B≤0.02) | 5 to 20 nM | ≤ 50 nM
OC[C@H]1CC[C@@H](Nc2nc3ccc(Cn4cnc5cc(F)cnc54)cc3s2)CC1 [Example 180, (cis-4-((6-((6-fluoro-3H-imidazo[4,5-b]pyridin-3-yl)methyl)benzo[d]thiazol-2-yl)amino)cyclohexyl)methanol] | 100 to 500 nM | > 500 nM | A (A≤0.01) | 20 to 50 nM | 50 to 500 nM
CS[C@@H]1CCCC[C@H]1Nc1nc2ccc(Cn3cnc4cc(F)cnc43)cc2s1 [Example 181, 6-((6-fluoro-3H-imidazo[4,5-b]pyridin-3-yl)methyl)-N-((1R,2R)-2-(methylthio)cyclohexyl)benzo[d]thiazol-2-amine] | 100 to 500 nM | 200 to 500 nM | B (0.01<B≤0.02) | 5 to 20 nM | ≤ 50 nM
O[C@@H]1CCCC[C@H]1Nc1nc2ccc(Cn3cnc4cc(OC5COC5)ccc43)cc2s1 [Example 182, (1R,2R)-2-((6-((5-(oxetan-3-yloxy)-1H-benzo[d]imidazol-1-yl)methyl)benzo[d]thiazol-2-yl)amino)cyclohexanol] | 100 to 500 nM | ≤ 50 nM | A (A≤0.01) | ≤ 5 nM | 50 to 500 nM
C=Cc1ccc2c(c1)ncn2Cc1ccc2nc(N[C@@H]3CCCC[C@H]3O)sc2c1 [Example 183, (1R,2R)-2-((6-((5-vinyl-1H-benzo[d]imidazol-1-yl)methyl)benzo[d]thiazol-2-yl)amino)cyclohexanol] | ≤ 100 nM | ≤ 50 nM | B (0.01<B≤0.02) | ≤ 5 nM | 50 to 500 nM
O[C@@H]1CCCC[C@H]1Nc1nc2ccc(Cn3cnc4cc(C5=CCCCC5)ccc43)cc2s1 [Example 184, (1R,2R)-2-((6-((5-(cyclohex-1-en-1-yl)-1H-benzo[d]imidazol-1-yl)methyl)benzo[d]thiazol-2-yl)amino)cyclohexanol] | ≤ 100 nM | 200 to 500 nM | A (A≤0.01) | 5 to 20 nM | 50 to 500 nM
Cn1cc(-c2ccc3c(c2)ncn3Cc2ccc3nc(N[C@@H]4CCCC[C@H]4O)sc3c2)c(C(F)(F)F)n1 [Example 185, (1R,2R)-2-((6-((5-(1-methyl-3-(trifluoromethyl)-1H-pyrazol-4-yl)-1H-benzo[d]imidazol-1-yl)methyl)benzo[d]thiazol-2-yl)amino)cyclohexanol] | ≤ 100 nM | 50 to 200 nM | B (0.01<B≤0.02) | 5 to 20 nM | ≤ 50 nM
O[C@@H]1CCCC[C@H]1Nc1nc2ccc(Cc3cnc4cccc(F)n34)cc2s1 [Example 186, (1R,2R)-2-((6-((5-fluoroimidazo[1,2-a]pyridin-3-yl)methyl)benzo[d]thiazol-2-yl)amino)cyclohexanol] | 100 to 500 nM | 200 to 500 nM | B (0.01<B≤0.02) | 5 to 20 nM | 50 to 500 nM
O[C@@H]1CCCC[C@H]1Nc1nc2ccc(Cc3cnc4cc(N5CCOCC5)ccn34)cc2s1 [Example 187, (1R,2R)-2-((6-((7-morpholinoimidazo[1,2-a]pyridin-3-yl)methyl)benzo[d]thiazol-2-yl)amino)cyclohexanol] | > 2000 nM | 50 to 200 nM | A (A≤0.01) | 5 to 20 nM | 500 to 2000 nM
CN1CCN(c2ccn3c(Cc4ccc5nc(N[C@@H]6CCCC[C@H]6O)sc5c4)cnc3c2)CC1 [Example 188, (1R,2R)-2-((6-((7-(4-methylpiperazin-1-yl)imidazo[1,2-a]pyridin-3-yl)methyl)benzo[d]thiazol-2-yl)amino)cyclohexanol] | > 2000 nM | 50 to 200 nM | A (A≤0.01) | 5 to 20 nM | 500 to 2000 nM
Cc1cc(C)c2c(c1)ncn2Cc1ccc2nc(N[C@@H]3CCCC[C@H]3O)sc2c1 [Example 189] | 500 to 2000 nM | 200 to 500 nM | A (A≤0.01) | 5 to 20 nM | 500 to 2000 nM
Cc1cc(Br)cc2ncn(Cc3ccc4nc(N[C@@H]5CCCC[C@H]5O)sc4c3)c12 [Example 190, (1R,2R)-2-((6-((5-bromo-7-methyl-1H-benzo[d]imidazol-1-yl)methyl)benzo[d]thiazol-2-yl)amino)cyclohexanol] | 500 to 2000 nM | > 500 nM | A (A≤0.01) | 20 to 50 nM | 500 to 2000 nM
Fc1cnc2c(c1)ncn2Cc1ccc2nc(Nc3ccccc3)sc2c1 [Example 191, 6-((6-fluoro-3H-imidazo[4,5-b]pyridin-3-yl)methyl)-N-phenylbenzo[d]thiazol-2-amine] | 100 to 500 nM | > 500 nM | A (A≤0.01) | 20 to 50 nM | 500 to 2000 nM
OC[C@@H]1CCC[C@@H](Nc2nc3ccc(Cn4cnc5cc(F)cnc54)cc3s2)C1 [Example 192, ((1R,3R)-3-((6-((6-fluoro-3H-imidazo[4,5-b]pyridin-3-yl)methyl)benzo[d]thiazol-2-yl)amino)cyclohexyl)methanol] | 100 to 500 nM | 200 to 500 nM | B (0.01<B≤0.02) | 5 to 20 nM | ≤ 50 nM
O[C@@H]1[C@H](O)CCC[C@H]1Nc1nc2ccc(Cn3cnc4cc(F)cnc43)cc2s1 [Example 193, (1R,2S,3R)-3-((6-((6-fluoro-3H-imidazo[4,5-b]pyridin-3-yl)methyl)benzo[d]thiazol-2-yl)amino)cyclohexane-1,2-diol] | ≤ 100 nM | ≤ 50 nM | A (A≤0.01) | 5 to 20 nM | ≤ 50 nM
OC[C@H]1CCC[C@@H](Nc2nc3ccc(Cn4cnc5cc(F)cnc54)cc3s2)C1 [Example 194, ((1S,3R)-3-((6-((6-fluoro-3H-imidazo[4,5-b]pyridin-3-yl)methyl)benzo[d]thiazol-2-yl)amino)cyclohexyl)methanol] | ≤ 100 nM | 50 to 200 nM | B (0.01<B≤0.02) | 5 to 20 nM | ≤ 50 nM
N#Cc1cc2ncn(Cc3ccc4nc(N[C@@H]5CCCC[C@H]5O)oc4c3)c2cc1Cl [Example 195, 6-chloro-1-((2-(((1R,2R)-2-hydroxycyclohexyl)amino)benzo[d]oxazol-6-yl)methyl)-1H-benzo[d]imidazole-5-carbonitrile] | 500 to 2000 nM | 200 to 500 nM | A (A≤0.01) | 20 to 50 nM | 500 to 2000 nM
